Measurements from article PMC7679387, “VZHE-039, a novel antisickling agent that prevents erythrocyte sickling under both hypoxic and anoxic conditions” (Scientific Reports, 2020).
“Also recorded” adds a separate entry of the source.

How the values were obtained:
[1] = molecular target: T1, HbA (Homo sapiens, UniProt P69905); assay: In vitro time-dependent Hb oxygen equilibrium study using normal whole blood (tonometry); type: cell-based; settings: 2 mM, Hct 30%, 37 °C, 1-24 h
T1 construct: fresh normal adult whole blood (Hct of 30%); from tissue; host or cells: normal adult whole blood (red blood cells)
T1 sequence (P69905 2-142 limits assumed): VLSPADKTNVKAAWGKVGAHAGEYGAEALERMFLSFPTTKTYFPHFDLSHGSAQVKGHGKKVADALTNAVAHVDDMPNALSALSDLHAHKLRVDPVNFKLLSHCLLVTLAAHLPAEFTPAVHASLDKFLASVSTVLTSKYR
T1 sequence (P68871 2-147 partner limits assumed): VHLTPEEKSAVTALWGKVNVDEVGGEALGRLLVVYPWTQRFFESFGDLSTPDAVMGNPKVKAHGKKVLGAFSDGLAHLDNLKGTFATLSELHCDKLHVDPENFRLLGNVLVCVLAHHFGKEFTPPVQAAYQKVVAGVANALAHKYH
Source text: The antisickling activity of aromatic aldehydes is dependent on Schiff-base interaction between the aldehyde moiety and the Hb αVal1 amines (Schiff-base adduct) and the increase in the protein affinity for oxygen[30]–[40]. […] To overcome this pharmacologic limitation, Tucaresol and Voxelotor, two potent antisickling agents utilized a ortho-hydroxyl moiety (relative to the aldehyde group) on the benzaldehyde ring to form intramolecular hydrogen-bond interaction with the aldehyde group to form hemiacetal-like moiety, which led to significant reduction in oxidative metabolism of the aldehyde[28],[50]. […] VZHE-039, however, incorporates this ortho-hydroxyl moiety on the benzene ring, which is expected to increase its oxidative metabolic stability. This was tested by incubating 2 mM of VZHE-039 (with vanillin and TD-7 as controls) with fresh normal adult whole blood (Hct of 30%) at 37 °C as a surrogate measure of oxidative metabolism. At defined time points (1, 4, 8, 12 and 24 h), aliquot samples were drawn, and subsequently analyzed for their P50-shifts relative to the initial P50 value, using three-point tonometry. In parallel, an untreated control sample was also assessed to control for any time-dependent, but drug-independent changes in P50 values. […] These findings confirm the importance of the ortho-hydroxyl group in aromatic aldehydes in preventing or reducing enzymatic metabolism of aldehyde in RBCs.
Normal whole blood samples (hematocrit 30%) in the absence (control) or presence of 2 mM concentration VZHE-039 (solubilized in DMSO) were incubated at 37 °C for 24 h with shaking (at 140 rpm). At 1, 4, 8, 12 and 24 h time intervals, aliquots of this mixture were removed and then subjected to OEC analysis using tonometry as previously described. Vanillin and TD-7 were used as positive controls, while DMSO was tested as negative control. Briefly, the compound-treated blood samples were incubated in IL 237 tonometers (Instrumentation Laboratories, Inc. Lexington, MA) for approximately 10 min at 37 °C, and allowed to equilibrate at oxygen tensions 6, 20, and 40 mmHg. The samples were then aspirated into an ABL 700 Automated Blood Gas Analyzer (Radiometer) to determine the pH, partial pressure of CO2 (pCO2), partial pressure of oxygen (pO2), and Hb oxygen saturation values (SO2). The measured values of pO2 (mmHg) and SO2 at each pO2 value were then subjected to a non-linear regression analysis using the program Scientist (Micromath, Salt Lake City, UT) to estimate P50 as previously reported.

[2] = tested on: SS RBCs; assay: pO2-dependent degree of sickling in Hemox Analyzer; type: cell-based, human; settings: Hct 20%
Method: In a confirmatory study, a pO2 dependent degree of sickling of VZHE-039 at 1 and 2 mM doses, with Voxelotor as a control was performed using a Hemox analyzer. […] Oksenberg et al.reported similar observations with Voxelotor[28], where the compound lost its potent antisickling activity at low pO2 values.
The second study established pO2 dependent degree of sickling of VZHE-039, with Voxelotor as a control. Concurrently, blood samples, hematocrit 20%, were incubated without any drug (control) or with 1, or 2 mM VZHE-039 at 37 °C for 1 h. A second control sample was incubated with 2 mM Voxelotor. At conclusion, 100 uL aliquots of each suspension were mixed with 2.5 mL Hemox buffer (pH 7.4, supplemented with antifoam), and transferred into the sample chamber of the Hemox Analyzer. Compressed air was then flushed through the sample to ensure complete oxygenation (at 150 mmHg). Nitrogen gas was then introduced into the sample chamber, and 50 uL aliquots were obtained and fixed at defined pO2 values. At conclusion, all fixed samples were subjected to microscopic analysis for their degree of sickling, and results were plotted using Prism Graph Pad software. The experiments were conducted in three replicates on different days, and mean and standard deviation values are reported.

[3] = molecular target: T2, CYP1A2 (Homo sapiens, UniProt P05177); assay: In vitro CYP inhibition, pooled human liver microsomes
T2 sequence (P05177 1-516): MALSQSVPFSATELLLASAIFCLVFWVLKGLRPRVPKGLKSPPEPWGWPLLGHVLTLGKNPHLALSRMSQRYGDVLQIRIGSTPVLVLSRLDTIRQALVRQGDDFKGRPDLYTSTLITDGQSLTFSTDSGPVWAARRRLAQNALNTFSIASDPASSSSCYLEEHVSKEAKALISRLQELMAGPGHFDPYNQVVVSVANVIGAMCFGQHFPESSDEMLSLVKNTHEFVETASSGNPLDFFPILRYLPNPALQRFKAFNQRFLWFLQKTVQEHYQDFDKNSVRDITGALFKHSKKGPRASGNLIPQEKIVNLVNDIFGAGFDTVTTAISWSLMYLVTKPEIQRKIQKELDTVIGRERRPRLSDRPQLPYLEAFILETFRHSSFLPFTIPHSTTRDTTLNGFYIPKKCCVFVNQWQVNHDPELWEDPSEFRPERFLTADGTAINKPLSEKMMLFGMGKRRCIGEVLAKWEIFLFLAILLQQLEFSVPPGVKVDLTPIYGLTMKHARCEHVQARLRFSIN
Method: Next, we tested VZHE-039 at concentrations of 0.1 to 100 µM, considered to be biologically relevant unbound plasma concentrations, for possible CYP inhibition using pooled human liver microsomes and isozyme-specific probe substrates (CYP1A2, CYP2C8, CYP2C9, CYP2C19, CYP2D6, CYP3A4, CYP2B6)[55].
VZHE-039 was studied for its inhibitory potential of seven major drug metabolizing human cytochrome P450 (CYP) enzymes (CYP1A2, CYP2C8, CYP2C9, CYP2C19, CYP2D6, CYP3A4, CYP2B6) using pooled human liver microsomes as published previously[26],[55]. The probe substrates include tacrine (CYP1A2), amodiaquine (CYP2C8), tolbutamide (CYP2C9), mephenytoin (CYP2C19), dextromethorphan (CYP2D6), midazolam (CYP3A4), testosterone (CYP3A4), and bupropion (CYP2B6). […] Assay conditions were optimized for each human cytochrome P450 substrate. The optimized reaction mixtures (200 μL) contained a final concentration of 0.2–0.5 mg/mL pooled human liver microsomes, 2 mM NADPH in 100 mM potassium phosphate, pH 7.4 buffer with 5 mM MgCl2, and VZHE-039 concentration of 0.1 to 100 µM. […] Effect of VZHE-039 on formation of the respective probe substrate metabolites (velnacrine, N‐desethylamodiaquine, 4-hydroxytolbutamide, 4′-hydroxymephenytoin, dextrophan, 1′-hydroxymidazolam, and 6β-hydroxtestosterone and hydroxybupropion) were determined using LC–MS/MS.

O=Cc1c(O)cccc1OCc1cccc(CO)n1 [VZHE-039, 2-((6-(Hydroxymethyl)pyridin-2-yl)methoxy)-6-hydroxybenzaldehyde]
Time course of P50-shift (in words) [1]: sustained P50-shift throughout the entire 24-h experimental period | pO2-dependent sickling inhibition (in words) ([2]; 1 mM): delay in initiation of sickling, as well as reduction in the total number of sickled cells; also recorded: significant delay in initiation of sickling | pO2-dependent sickling inhibition (in words) ([2]; 2 mM): complete inhibition of sickling at the lowest recorded pO2; also recorded: complete sickling inhibition at all pO2 | IC50 [3]: 4.7 µM
